Measured values: PubChem BioAssay AID324 (DTP/NCI, 2004)
Toxic doses and inconclusive results are not listed. Starred links: 1 amine or outer side, 2 acyl side, 3 side chain; linkers in the order of their positions; H or OH if unused. Positions of bridges follow the written chain, without caps; N, C: chain ends. Non-standard residues stand in square brackets, D forms with d. Residues, ends and D or L forms follow the SMILES beside them. Chains are numbered I, II in the order given. Actinocin(9to1) = Cc1c2oc3c(C)ccc(C(=O)[*:1])c3nc-2c(C(=O)[*:2])c(N)c1=O; aThr = C[C@H](O)[C@H](N)C(=O)O; NMeV = CN[C@H](C(=O)O)C(C)C; Sar = CNCC(=O)O

Tested on: CD2F1 mice, AMSA-resistant P388 leukemia ip, median survival T/C
Assay: NCI In Vivo Anticancer Drug Screen. Data for tumor model P388 Leukemia resistant to AMSA; NSC 249992 (intraperitoneal) in CD2F1 (CDF1) mice
Settings: endpoint: median survival time, higher = longer survival
Experimental: The antitumor activity of compounds was measured in mice bearing transplantable tumors. Survival or tumor size were measured and the results are expressed as the measurement made in the treated group (T) divided by the measurement made in the vehicle treated control group (C). The tumor model used in this assay is P388 Leukemia resistant to AMSA; NSC 249992 (intraperitoneal) in CD2F1 (CDF1) mice

## Cc1c2oc3c(C)ccc(C(=O)N[C@@H]4C(=O)N[C@H](C(C)C)C(=O)N5CCC[C@H]5C(=O)N(C)CC(=O)N(C)[C@@H](C(C)C)C(=O)O[C@H]4C)c3nc-2c(C(=O)N[C@@H]2C(=O)N[C@H](C(C)C)C(=O)N3CCC[C@H]3C(=O)N(C)CC(=O)N(C)[C@@H](C(C)C)C(=O)O[C@H]2C)c(N)c1=O (I: [aThr][dV]P[Sar][NMeV] / II: [aThr][dV]P[Sar][NMeV]; ester I:1-I:C, II:1-II:C; linker I:N-II:N via Actinocin(9to1))
dose: 0.08 mg/kg/injection, schedule: Q04DX003 (ip), vehicle: saline + alcohol
  T/C: 171 % of control
dose: 0.13 mg/kg/injection, schedule: Q04DX003 (ip), vehicle: saline + alcohol
  T/C: 223 % of control
dose: 0.18 mg/kg/injection, schedule: Q04DX003 (ip), vehicle: saline + alcohol
  T/C: 155 % of control
dose: 0.3 mg/kg/injection, schedule: Q04DX003 (ip), vehicle: saline + alcohol
  T/C: 176 % of control
dose: 0.5 mg/kg/injection, schedule: Q04DX003 (ip), vehicle: saline + alcohol
  T/C: 219 % of control

## CC[C@]1(O)C[C@H]2CN(CCc3c([nH]c4ccccc34)[C@@](C(=O)OC)(c3cc4c(cc3OC)N(C=O)[C@H]3[C@@](O)(C(=O)OC)[C@H](OC(C)=O)[C@]5(CC)C=CCN6CC[C@]43[C@@H]65)C2)C1
dose: 0.72 mg/kg/injection, schedule: Q04DX003 (ip), vehicle: saline
  T/C: 176 % of control
dose: 1.0 mg/kg/injection, schedule: Q04DX003 (ip), vehicle: saline
  T/C: 102 % of control
dose: 1.2 mg/kg/injection, schedule: Q04DX003 (ip), vehicle: saline
  T/C: 201 % of control
dose: 2.0 mg/kg/injection, schedule: Q04DX003 (ip), vehicle: saline
  T/C: 193 % of control

## O=c1[nH]cc(F)c(=O)[nH]1
dose: 21.6 mg/kg/injection, schedule: Q04DX003 (ip), vehicle: saline
  T/C: 155 % of control
dose: 36.0 mg/kg/injection, schedule: Q04DX003 (ip), vehicle: saline
  T/C: 165 % of control
dose: 60.0 mg/kg/injection, schedule: Q04DX003 (ip), vehicle: saline
  T/C: 168 % of control
dose: 100.0 mg/kg/injection, schedule: Q04DX003 (ip), vehicle: saline
  T/C: 170 % of control

## CCN(CC)CCNc1ccc(CO)c2sc3ccccc3c(=O)c12
dose: 10.36 mg/kg/injection, schedule: Q01DX005 (ip), vehicle: water
  T/C: 106 % of control
dose: 17.28 mg/kg/injection, schedule: Q01DX005 (ip), vehicle: water
  T/C: 117 % of control
dose: 28.8 mg/kg/injection, schedule: Q01DX005 (ip), vehicle: water
  T/C: 98 % of control
dose: 48.0 mg/kg/injection, schedule: Q01DX005 (ip), vehicle: water
  T/C: 97 % of control
dose: 80.0 mg/kg/injection, schedule: Q01DX005 (ip), vehicle: water
  T/C: 87 % of control
